# Results: doi:10.1101/2020.04.09.034306v1 (biorxiv, 2020)
# pIC50: −log10 of the molar value.
# Molecular target: T1, ACE (angiotensin-I converting enzyme, from rabbit lung) (Oryctolagus cuniculus, UniProt P12822)
# T1 sequence (P12822 34-1310): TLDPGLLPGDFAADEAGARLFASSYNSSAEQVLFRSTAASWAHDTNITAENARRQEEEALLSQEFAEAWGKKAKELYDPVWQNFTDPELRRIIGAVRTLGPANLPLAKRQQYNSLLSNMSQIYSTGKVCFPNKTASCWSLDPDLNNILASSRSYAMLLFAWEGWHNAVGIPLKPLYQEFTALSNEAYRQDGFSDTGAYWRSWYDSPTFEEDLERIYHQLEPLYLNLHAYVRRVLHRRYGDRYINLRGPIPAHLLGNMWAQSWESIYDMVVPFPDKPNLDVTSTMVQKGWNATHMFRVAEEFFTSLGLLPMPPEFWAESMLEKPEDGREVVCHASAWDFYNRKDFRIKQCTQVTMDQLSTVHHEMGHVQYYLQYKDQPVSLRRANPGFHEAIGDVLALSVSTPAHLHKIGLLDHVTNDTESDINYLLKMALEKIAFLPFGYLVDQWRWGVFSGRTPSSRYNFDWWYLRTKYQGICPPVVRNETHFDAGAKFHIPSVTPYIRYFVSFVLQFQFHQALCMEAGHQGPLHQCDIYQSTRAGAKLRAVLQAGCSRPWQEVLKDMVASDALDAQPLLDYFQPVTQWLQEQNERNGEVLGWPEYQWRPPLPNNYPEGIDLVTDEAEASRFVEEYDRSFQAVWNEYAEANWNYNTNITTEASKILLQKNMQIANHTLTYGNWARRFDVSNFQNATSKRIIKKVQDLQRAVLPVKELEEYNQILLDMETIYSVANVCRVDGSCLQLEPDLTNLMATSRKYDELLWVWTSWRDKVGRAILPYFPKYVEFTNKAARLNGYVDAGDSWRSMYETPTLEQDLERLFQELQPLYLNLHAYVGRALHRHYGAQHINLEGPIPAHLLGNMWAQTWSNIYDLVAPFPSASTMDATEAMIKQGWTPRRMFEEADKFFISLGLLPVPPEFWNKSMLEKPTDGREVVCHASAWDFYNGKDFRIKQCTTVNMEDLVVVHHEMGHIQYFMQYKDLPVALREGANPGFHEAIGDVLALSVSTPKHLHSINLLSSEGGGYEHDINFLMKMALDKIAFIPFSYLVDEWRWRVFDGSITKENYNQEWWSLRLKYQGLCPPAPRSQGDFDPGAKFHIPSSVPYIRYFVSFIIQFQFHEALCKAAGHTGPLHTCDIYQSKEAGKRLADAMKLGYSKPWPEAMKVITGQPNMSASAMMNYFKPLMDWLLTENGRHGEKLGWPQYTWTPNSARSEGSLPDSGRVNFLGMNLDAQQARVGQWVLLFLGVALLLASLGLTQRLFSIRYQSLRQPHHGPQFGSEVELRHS
# Assay: hippuric acid release from HHL, cyanuric chloride colour at […] nm
# Assay type: biochemical
smiles,measurement,value
NCCCC[C@H](N[C@@H](CCc1ccccc1)C(=O)O)C(=O)N1CCC[C@H]1C(=O)O [Lisinopril],pIC50,6.12
